From patent publication US12285428B2 (IMBRIA PHARMACEUTICALS, INC., priority 2021, dated 2025)
Read-outs that look alike come from different tables or passages of the source.

Legend:
clinical [1] = settings: in vivo, po
Description: Before dosing (on Days 1, 4, 7, and 10 in the single-dose MR part), subjects fasted overnight for at least 10 hours following a light supper on the evening before. Following dosing, subjects fasted for 4 hours until lunch. During fasting, fluids other than water were not allowed; however, water was not allowed from 2 hours predose until 1 hour postdose (apart from the water taken with the dose).
The AUCs were calculated using the linear up/log down trapezoidal rule, expressed in units of concentration×time.
Subjects with R2 below 0.80 or % AUCextra>20% were not excluded from the dose-proportionality evaluation based on AUC0-inf. A point estimate and 95% CI were produced for the slope. […] Since there were only 2 dose levels in the MAD part, no dose-proportionality analysis was performed for the MAD part.

[2] = human, in vivo, 200 mg
Description: On Day 13, subjects received a FDA-defined high-fat breakfast that had to be consumed within 20 minutes. […] Following dosing, subjects fasted for 4 hours until lunch. During fasting, fluids other than water were not allowed. Subjects were not allowed to lie down for 4 hours after dosing, except when required for assessments that needed to be performed.

[3] = human, in vivo
Description: Subjects received multiple oral doses of an IR formulation of IMB-1018972 or placebo once every 12 hours (q12h) for 14 consecutive days.
The doses were selected based upon the safety, tolerability, and PK data from the SAD part: • Group B1 multiple oral doses of an IR formulation of 150 mg IMB-1018972 (n=9) or matching placebo (n=3) twice daily (q12h) for 14 days; on Day 14 only a single morning dose was administered • Group B2: multiple oral doses of an IR formulation of 50 mg IMB-1018972 (n=9) or matching placebo (n=3) q12h for 14 days; on Day 14 only a single morning dose was administered
Before each morning dose, subjects fasted overnight for at least 10 hours following a snack on the evening before. On Days 1 and 14, subjects received a standardized breakfast that had to be consumed within 20 minutes. Dosing occurred at 30 minutes after the start of breakfast. Following dosing, subjects fasted for 4 hours until lunch. During fasting, fluids other than water were not allowed. On Days 2 to 13, breakfast was not standardized and was given within maximally 1 hour before dosing and consumed before dosing. No fasting after dosing was applicable on these days.
On all dosing days, an evening snack was given within maximally 1 hour before dosing and consumed before dosing.

[4] = human, in vivo, po
[5] = human, in vivo; remark: listed apart in the source
Description: (§1) Urine collection for PK was only conducted in the SAD part, but not in the second period of the FE group A4. […] The subjects were instructed to empty their bladders completely before study drug administration and at the end of each collection interval. A blank urine sample was collected within 12 hours prior to study drug administration. The exact times of urine collection and the urine weight of the entire interval (before and after addition of any urine stabilizers, if used) were recorded in the eCRF.

[6] = FIH study, FE arm of SAD part: effect of food on plasma PK (150 mg IMB-1018972); settings: human, in vivo
Description: Subjects assigned to Group A4 also participated in the FE arm and received the same single dose of IMB-1018972 or placebo under fed conditions (Food and Drug Administration [FDA]-defined high-fat breakfast after an overnight fast of at least 10 hours) in a second period at least 1 week after drug administration under fasted conditions in the SAD part.
Then, subjects received an FDA-defined high-fat breakfast that had to be consumed within 20 minutes. The entire breakfast had to be consumed by the subjects. […] Following dosing, subjects fasted for 4 hours until lunch. During fasting, fluids other than water were not allowed.
For the second period of Group A4 in the FE arm, and for Day 13 of the single-dose MR part, the FDA-defined high-fat breakfast of 918 kcal consisted of: • 2 fried eggs (in 15 g butter/margarine) (approximately 100 g) • 1 portion of bacon (40 g) (or brie 60+ for vegetarians) • 1 portion of fried potatoes (115 g) • 2 slices of (toasted) (wheat) bread (approximately 70 g) with 15 g margarine • 1 glass of whole milk (240 mL) The total of 918 kcal (vegetarian version 915 kcal) could be broken down as follows: • 39 g protein=156 kcal • 59 g fat=527 kcal • 59 g carbohydrates=235 kcal Blinding

clinical [7] = settings: human, in vivo, po
Description: as §1

[8] = FIH study, SAD part: PK in urine
Description: as §1

## COc1ccc(CN2CCN(CCO)CC2)c(OC)c1OC [IMB-1028814, 2-[4-[(2,3,4-trimethoxyphenyl)methyl]piperazin-1-yl]ethanol]
Clinical [1]; human
  Time at which detectable plasma concentrations were generally seen: 15 to 30 min
  Tmax: ~1 h
  half-life: 2.6 to 3 h
Clinical [1]; human, 50 mg
  Tmax: 0.5 to 1.02 h
Clinical [1]
  Fashion of elimination: biphasic
[2]
  Cmax higher after high-fat breakfast relative to fasted conditions: approximately 42%
  Effect of food on AUC0-inf: estimate (fed relative to fasted): 1.16
  Effect of food on AUC0-t: estimate (fed relative to fasted): 1.16
  Effect of food on Cmax: estimate (fed relative to fasted): 1.42
[3]
  Geometric mean Cmax higher on Day 1 after 150 mg fed in the MAD part than after single 150 mg fed in the SAD part: 97%
[4]
  AUC0-t higher after the 8-hour MR formulation than after the 4-hour MR formulation: 6%
  AUC0-t lower after the 8-hour MR formulation than after the 4-hour MR formulation: 26%
[5]
  Primary clearance mechanism: metabolism
[6]
  Cmax lower after high-fat breakfast relative to fasted conditions: approximately 36%
  Effect of food on AUC0-inf: estimate (fed relative to fasted): 1.12
  Effect of food on AUC0-t: estimate (fed relative to fasted): 1.12
  Effect of food on Cmax: estimate (fed relative to fasted): 0.64
[6]; Median tmax
  Tmax: 1 h
Clinical [7]
  CL renal: 62.7 to 89.5 mL/min

## COc1ccc(CN2CCNCC2)c(OC)c1OC [trimetazidine, reference compound]
Clinical [1]; human
  Time at which detectable plasma concentrations were generally seen: 15 to 30 min
[3]
  Geometric mean Cmax lower on Day 1 after 150 mg fed in the MAD part than after single 150 mg fed in the SAD part: 32%
[8]; concluded from urinary excretion
  Primary clearance mechanism: renal excretion
[8]; in vivo
  Renal handling (CLR greater than glomerular filtration rate, 7.5 L/h): net tubular secretion
[8]; within 48 hours after single oral 35 mg trimetazidine
  Arithmetic mean percent of the dose excreted in urine as trimetazidine: 54.47%
[4]
  AUC0-t higher after the 8-hour MR formulation than after the 4-hour MR formulation: 4%
  AUC0-t lower after the 8-hour MR formulation than after the 4-hour MR formulation: 12%
